Results on 1 compound are retold here after patent US20190125735A1, “INHIBITION OF P38 MAPK FOR THE TREATMENT OF CANCER” (Board of Regents, The University of Texas System, priority 2015, published 2019).

“Also recorded” adds a separate entry of the source.

Assay [1] has as its system HMLE-Snail, HMLE-Twist, MDA-MB-231 and SUM159 cells. The assay can be described thus: Sphere formation of mesenchymal mammary cells. In kind it is cell-based, human. Particulars: relative to vehicle-treated cells. Here is the method:
It was next ascertained whether p38 inhibition compromises the maintenance of the established EMT phenotype.
Quantification of invadopodia (Eckert et al., 2011), scratch/wound-healing assays (Sarkar et al., 2015) fluorescence-activated cell sorting (FACS), and sphere-formation assays (Mani et al., 2008) were conducted as described previously.

Assay [2] relates to BCR-ABL+ mouse ALL cells seeded on MSCs. The experiment in a line: Post-screening leukemic cell cluster formation underneath pretreated MSCs. In kind it is cell-based. The following applies: imatinib 5 μM with SB203580 20 μM or dexamethasone 50 nM, 4 days + 24 hours. An excerpt: (§1) Phase-contrast images of co-cultured MSCs and ALL cells were obtained using an Axio Observer.Z1 microscope, an AxioCam MR camera, and AxioVision software (Zeiss, Oberkochen, Germany). For screening, a cluster was defined as a group of more than five leukemic cells under the MSCs. The total number of leukemic cell clusters was the average number of clusters from three different fields (10× objective). For post-screening experiments, a cluster was defined as a group of more than 10 leukemic cells under the MSCs. The total number of leukemic cell clusters was the average number of clusters from 10 different fields (10× objective).

Assay [3] relates to BCR-ABL+ mouse ALL cells seeded on MSCs (OP9 cells). The experiment in a line: Clinical compound library screen, imatinib-pretreated MSC / BCR-ABL+ ALL cell co-culture. In kind it is cell-based. The procedure:
The effectiveness of the compounds was determined in preventing cluster formation by microscopy and the toxicity of the compounds by bioluminescence imaging of co-cultured MSCs and leukemic cells.
The clinical compounds library was purchased from the John S. Dunn Gulf Coast Consortium for Chemical Genomics (Houston, Tex.). […] Then, luciferase-labeled BCR-ABL+ mouse ALL cells were seeded on to the MSCs. Treatment was continued for 1 day, and the samples were evaluated via phase-contrast microscopy for the formation of leukemic cell clusters underneath the pretreated MSCs. To determine the compounds' toxicity in MSCs or leukemic cells, we examined the MSC/ALL cell co-cultures via microscopy and/or bioluminescence imaging.
as §1

Assay [4] deals with ZEB1. The experiment in a line: ZEB1 mRNA and protein levels (qRT-PCR, immunoblotting). It is filed as cell-based, human. An excerpt:
First, the elevated levels of FOXC2 and ZEB1 transcripts were confirmed in HMLER-FOXC2 cells versus HMLER-vector cells by qRT-PCR (FIG. 19A). […] Accordingly, shRNA-mediated suppression of FOXC2 in a panel of cell lines yielded a >50-fold decrease in ZEB1 mRNA (FIG. 19E) and a >80% reduction in ZEB1 protein levels (FIG. 19F). […] Conversely, a >50-fold increase as found in miR-200b, and a >1000-fold increase in miR-200c, following FOXC2 knockdown compared to control shRNA-transduced counterparts (FIG. 19H). To ascertain whether FOXC2 directly regulates miR-200 or ZEB1 expression, the promoter regions of both miR-200 clusters on chromosomes 1 and 12 as well as the ZEB1 promoter were analyzed, and a conserved FOXC2-binding element within the ZEB1 promoter was identified. […] Furthermore, in support of the notion that p38-mediated phosphorylation of FOXC2 regulates ZEB1 expression, elevated ZEB1 protein levels were only detected in HMLER-FOXC2 and HMLER-FOXC2(S367E) cells (FIG. 19L, lanes 2 and 3), but not in HMLER-FOXC2(S367A) cells (FIG. 19L, lane 4).
(§2) Immunoblotting and immunofluorescence (Mani et al., 2008) were performed as previously described. Primary antibodies were as follows: β-actin (Sigma, St Louis, Mo., USA; A3853), mouse anti-human FOXC2 (Dr. Naoyuki Miura, Hamamatsu University School of Medicine, Japan), goat polyclonal anti-FOXC2 (Santa Cruz Biotechnology, Dallas, Tex., USA; sc-21397), p-p38 (Cell Signaling, Danvers, Mass., USA; 4511), p38 (Cell Signaling; 9211), E-cadherin (BD Biosciences, San Jose, Calif., USA; 61081), fibronectin (BD Biosciences; 610077), vimentin (Novus Biologicals, Littleton, Colo., USA; NB200-623), ZEB1 (Novus Biologicals; NBP1-05987), and HA (Covance, Princeton, N.J., USA; MMS-101P).
qRT-PCR was performed using SYBR Green (Applied Biosystems, Waltham, Mass., USA) for mRNAs and Taqman (Applied Biosystems) for microRNAs as described previously (Hollier et al., 2013).
Background: Quantitative PCR measures a nucleic acid by following its amplification.

In assay [5] the test system is FOXC2. The experiment in a line: FOXC2 protein levels by immunoblotting in mammary cell lines. In kind it is cell-based, human. The following applies: series of cell lines, relative to vehicle, 24 h. The procedure:
Immortalized human mammary epithelial (HMLE) cells expressing empty vector (pWZL), Snail, Twist, Goosecoid (GSC), or an activated form of TGFβ1, V12H-Ras-transformed HMLE (HMLER) and HMLER-FOXC2 cells were maintained as previously described (Elenbaas et al., 2001) For 4-hydroxy-tamoxifen (4-OHT) treatment, HMLE-Snail-ER or HMLE-Twist-ER cells were exposed to 20 nM 4-OHT for the indicated number of days. MCF7, MDA-MB-231 and SUM159 human breast cancer cells and the 4T1 mouse mammary carcinoma cells were cultured as described. Human non-tumorigenic MCF10A cells were cultured as described (Hollier et al., 2013), and treated with 2.5 ng/ml TGFβ1 for 3 days to elicit EMT.
as §2

Regarding `C[S+]([O-])c1ccc(-c2nc(-c3ccc(F)cc3)c(-c3ccncc3)[nH]2)cc1` (stereo not shown) [SB203580, 4-(4-Fluorophenyl)-2-(4-methylsulfinylphenyl)-5-(4-pyridyl) 1H-imidazole], the Sphere-formation entry in assay [1] is recorded as “substantially reduced sphere-formation”. The “Leukemic cell clusters underneath imatinib-pretreated MSCs” value in assay [2] is listed as “completely prevented leukemic cell cluster formation”. In assay [3], the “Imatinib-induced leukemic cell cluster formation” value was “directly prevented imatinib-induced leukemic cell cluster formation; also recorded: potently inhibited the formation of imatinib-induced leukemic cell clusters”. For the same compound, the values for the ZEB1 protein levels result in assay [4] (HMLER-FOXC2(S367E) cells) and in assay [4] (HMLER-FOXC2 cells) were “remained relatively high” and “decreased”, respectively. Moreover, the “Reduction of ZEB1 mRNA and protein levels compared to vehicle” value in assay [4] (SB203580 treatment) is given as above 60 fold. Also, the FOXC2 protein levels entry in assay [5] is “consistent and striking decrease in FOXC2 protein levels”.
